In ChEMBL document CHEMBL1149454, “Synthesis and in vitro antitubercular activity of some 1-[(4-sub)phenyl]-3-(4-{1-[(pyridine-4-carbonyl)hydrazono]ethyl}phenyl)thiourea” (Bioorg Med Chem Lett, 2006):
In brackets after ≈: the same amount, converted by molar mass.

The compounds below were run on Mycobacterium tuberculosis (assay: Antibacterial activity against INH-resistant Mycobacterium tuberculosis).
Assay type: functional

Row | SMILES | MIC [µM]
1 | C/C(=N/NC(=O)c1ccncc1)c1ccc(N/C(S)=N/c2ccc(C)cc2)cc1 | 3.86 (≈ 1.56 µg/mL)
2 | C/C(=N/NC(=O)c1ccncc1)c1ccc(N/C(S)=N/c2ccc(F)cc2)cc1 | 0.49 (≈ 0.2 µg/mL)
3 | COc1ccc(N/C(S)=N\c2ccc(/C(C)=N\NC(=O)c3ccncc3)cc2)cc1 | 1.85 (≈ 0.776 µg/mL)
4 | CCOc1ccc(N/C(S)=N\c2ccc(/C(C)=N\NC(=O)c3ccncc3)cc2)cc1 | 1.79 (≈ 0.776 µg/mL)
5 | C/C(=N/NC(=O)c1ccncc1)c1ccc(N/C(S)=N/c2ccccc2)cc1 | 4 (≈ 1.56 µg/mL)
6 | C/C(=N/NC(=O)c1ccncc1)c1ccc(N/C(S)=N/c2ccc(Br)cc2)cc1 | 1.66 (≈ 0.778 µg/mL)
7 | NNC(=O)c1ccncc1 [ISONIAZID] | 90.9 (≈ 12.5 µg/mL)
